How the values were obtained:
Assay in all cases: Kinase panel (Carna)
Type in all cases: biochemical
FGFR3 = target: T1, FGFR3 (Homo sapiens, UniProt P22607)
T1 construct: purchased Carna Biosciences

EPHA3 = target: T2, EPHA3 (Homo sapiens, UniProt P29320)
T2 construct: purchased Carna Biosciences

CaMK2β = target: T3, CaMK2β (Homo sapiens, UniProt Q13554)
T3 construct: purchased Carna Biosciences

TEC = target: T4, TEC (Homo sapiens, UniProt P42680)
T4 construct: purchased Carna Biosciences
Description: (§1) Detailed information on the assay conditions is available on the website of Carna Biosciences (http://www.carnabio.com).

PLK1 = target: T5, PLK1 (Homo sapiens, UniProt P53350)
T5 construct: purchased Carna Biosciences

HIPK1 = target: T6, HIPK1 (Homo sapiens, UniProt Q86Z02)
T6 construct: purchased Carna Biosciences
Description: as §1

FES = target: T7, FES (Homo sapiens, UniProt P07332)
T7 construct: purchased Carna Biosciences
Description: as §1

AurA/TPX2 = target: T8, AurA/TPX2 (Homo sapiens, UniProt O14965)
T8 construct: purchased Carna Biosciences
Description: as §1

PIM2 = target: T9, PIM2 (Homo sapiens, UniProt Q9P1W9)
T9 construct: purchased Carna Biosciences
Description: as §1

SGK = target: T10, SGK (Homo sapiens, UniProt O00141)
T10 construct: purchased Carna Biosciences
T10 sequence (O00141 whole entry): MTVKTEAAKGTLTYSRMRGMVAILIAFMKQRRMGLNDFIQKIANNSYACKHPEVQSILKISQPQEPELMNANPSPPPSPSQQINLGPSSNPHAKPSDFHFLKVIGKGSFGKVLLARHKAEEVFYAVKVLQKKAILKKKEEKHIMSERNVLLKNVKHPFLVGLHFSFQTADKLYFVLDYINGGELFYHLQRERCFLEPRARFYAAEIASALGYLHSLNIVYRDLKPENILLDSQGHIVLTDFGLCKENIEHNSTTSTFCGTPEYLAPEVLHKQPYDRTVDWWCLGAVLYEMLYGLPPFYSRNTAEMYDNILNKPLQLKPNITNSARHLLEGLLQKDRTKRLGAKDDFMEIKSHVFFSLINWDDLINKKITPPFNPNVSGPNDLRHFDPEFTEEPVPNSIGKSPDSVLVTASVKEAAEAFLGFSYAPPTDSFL

PDGFRβ = target: T11, PDGFRβ (Homo sapiens, UniProt P09619)
T11 construct: purchased Carna Biosciences
Description: as §1

PHKG1 = target: T12, PHKG1 (Homo sapiens, UniProt Q16816)
T12 construct: purchased Carna Biosciences
Description: as §1

TRKA = target: T13, TRKA (Homo sapiens, UniProt P04629)
T13 construct: purchased Carna Biosciences
Description: as §1

MAP2K2_Cascade = target: T14, MAP2K2_Cascade (Homo sapiens, UniProt P36507)
T14 construct: purchased Carna Biosciences

SLK = target: T15, SLK (Homo sapiens, UniProt Q9H2G2)
T15 construct: purchased Carna Biosciences
Description: as §1

CaMK1α = target: T16, CaMK1α (Homo sapiens, UniProt Q14012)
T16 construct: purchased Carna Biosciences
Description: as §1

CK2α2/β = target: T17, CK2α2/β (Homo sapiens, UniProt P19784)
T17 construct: purchased Carna Biosciences

EPHA5 = target: T18, EPHA5 (Homo sapiens, UniProt P54756)
T18 construct: purchased Carna Biosciences

MAPKAPK3 = target: T19, MAPKAPK3 (Homo sapiens, UniProt Q16644)
T19 construct: purchased Carna Biosciences

p38α = target: T20, p38α (Homo sapiens, UniProt Q16539)
T20 construct: purchased Carna Biosciences
Description: as §1

PKACα = target: T21, PKACα (Homo sapiens, UniProt P17612)
T21 construct: purchased Carna Biosciences

MAP3K2_Cascade = target: T22, MAP3K2_Cascade (Homo sapiens, UniProt Q9Y2U5)
T22 construct: purchased Carna Biosciences
T22 sequence (Q9Y2U5 whole entry): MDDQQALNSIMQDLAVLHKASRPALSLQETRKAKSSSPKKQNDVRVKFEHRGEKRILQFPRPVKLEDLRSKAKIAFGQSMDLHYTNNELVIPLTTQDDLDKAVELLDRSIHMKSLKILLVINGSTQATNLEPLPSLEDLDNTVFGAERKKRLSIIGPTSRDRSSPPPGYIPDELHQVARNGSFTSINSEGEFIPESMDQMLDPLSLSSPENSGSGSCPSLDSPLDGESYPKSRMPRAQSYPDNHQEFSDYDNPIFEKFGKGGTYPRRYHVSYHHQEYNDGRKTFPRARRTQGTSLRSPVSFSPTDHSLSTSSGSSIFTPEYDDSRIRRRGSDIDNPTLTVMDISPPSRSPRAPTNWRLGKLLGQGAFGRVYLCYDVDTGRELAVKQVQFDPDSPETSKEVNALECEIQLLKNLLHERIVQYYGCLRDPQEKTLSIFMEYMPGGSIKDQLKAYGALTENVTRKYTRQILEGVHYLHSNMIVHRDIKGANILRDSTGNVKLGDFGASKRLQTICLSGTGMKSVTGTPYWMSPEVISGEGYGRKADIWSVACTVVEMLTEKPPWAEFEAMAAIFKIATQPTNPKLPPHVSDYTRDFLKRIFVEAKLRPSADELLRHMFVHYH
Description: as §1

IKKβ = target: T23, IKKβ (Homo sapiens, UniProt O14920)
T23 construct: purchased Carna Biosciences
Description: as §1

MAP2K5_Cascade = target: T24, MAP2K5_Cascade (Homo sapiens, UniProt Q13163)
T24 construct: purchased Carna Biosciences

NuaK2 = target: T25, NuaK2 (Homo sapiens, UniProt Q9H093)
T25 construct: purchased Carna Biosciences

PKCζ = target: T26, PKCζ (Homo sapiens, UniProt Q05513)
T26 construct: purchased Carna Biosciences
Description: as §1

EPHA7 = target: T27, EPHA7 (Homo sapiens, UniProt Q15375)
T27 construct: purchased Carna Biosciences

KDR = target: T28, KDR (Homo sapiens, UniProt P35968)
T28 construct: purchased Carna Biosciences
T28 sequence (P35968 20-1356): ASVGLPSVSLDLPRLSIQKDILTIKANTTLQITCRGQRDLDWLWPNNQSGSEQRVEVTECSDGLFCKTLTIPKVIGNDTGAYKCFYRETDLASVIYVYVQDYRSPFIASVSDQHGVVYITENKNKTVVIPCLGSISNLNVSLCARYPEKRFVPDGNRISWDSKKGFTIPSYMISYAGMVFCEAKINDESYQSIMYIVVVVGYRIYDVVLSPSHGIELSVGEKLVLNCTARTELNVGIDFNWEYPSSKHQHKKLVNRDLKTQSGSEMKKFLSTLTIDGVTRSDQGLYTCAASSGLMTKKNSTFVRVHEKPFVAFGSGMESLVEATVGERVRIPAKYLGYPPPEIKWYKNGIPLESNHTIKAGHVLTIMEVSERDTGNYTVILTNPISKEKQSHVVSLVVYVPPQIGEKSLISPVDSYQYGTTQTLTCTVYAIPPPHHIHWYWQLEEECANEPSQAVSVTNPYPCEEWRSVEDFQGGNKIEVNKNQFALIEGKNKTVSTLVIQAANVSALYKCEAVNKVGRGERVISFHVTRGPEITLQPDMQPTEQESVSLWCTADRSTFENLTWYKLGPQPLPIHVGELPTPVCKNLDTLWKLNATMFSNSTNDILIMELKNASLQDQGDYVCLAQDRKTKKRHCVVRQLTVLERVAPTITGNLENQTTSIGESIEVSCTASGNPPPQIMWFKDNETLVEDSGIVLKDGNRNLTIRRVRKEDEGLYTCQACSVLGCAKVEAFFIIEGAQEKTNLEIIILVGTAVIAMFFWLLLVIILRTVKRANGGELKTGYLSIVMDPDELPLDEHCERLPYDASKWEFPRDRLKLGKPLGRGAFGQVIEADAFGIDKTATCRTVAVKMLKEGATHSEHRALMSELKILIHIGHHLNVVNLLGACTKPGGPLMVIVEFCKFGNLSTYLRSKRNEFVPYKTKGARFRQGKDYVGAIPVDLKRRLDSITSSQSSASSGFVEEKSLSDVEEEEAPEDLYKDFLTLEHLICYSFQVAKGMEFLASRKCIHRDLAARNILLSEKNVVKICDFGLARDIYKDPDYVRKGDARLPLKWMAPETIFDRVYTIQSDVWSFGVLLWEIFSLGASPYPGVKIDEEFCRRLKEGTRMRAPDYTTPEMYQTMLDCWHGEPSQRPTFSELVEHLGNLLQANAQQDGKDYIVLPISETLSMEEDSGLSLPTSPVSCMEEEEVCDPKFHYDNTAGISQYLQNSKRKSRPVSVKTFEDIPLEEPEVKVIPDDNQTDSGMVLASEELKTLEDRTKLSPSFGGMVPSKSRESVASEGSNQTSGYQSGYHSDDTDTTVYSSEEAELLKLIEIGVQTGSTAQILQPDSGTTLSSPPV
Description: as §1

MAP2K1_Cascade = target: T29, MAP2K1_Cascade (Homo sapiens, UniProt Q02750)
T29 construct: purchased Carna Biosciences

MUSK = target: T30, MUSK (Homo sapiens, UniProt O15146)
T30 construct: purchased Carna Biosciences
Description: as §1

AKT1 = target: T31, AKT1 (Homo sapiens, UniProt P31749)
T31 construct: purchased Carna Biosciences
Description: as §1

CK1γ1 = target: T32, CK1γ1 (Homo sapiens, UniProt Q9HCP0)
T32 construct: purchased Carna Biosciences

EEF2K = target: T33, EEF2K (Homo sapiens, UniProt O00418)
T33 construct: purchased Carna Biosciences
Description: as §1

PKACγ = target: T34, PKACγ (Homo sapiens, UniProt P22612)
T34 construct: purchased Carna Biosciences
T34 sequence (P22612 whole entry): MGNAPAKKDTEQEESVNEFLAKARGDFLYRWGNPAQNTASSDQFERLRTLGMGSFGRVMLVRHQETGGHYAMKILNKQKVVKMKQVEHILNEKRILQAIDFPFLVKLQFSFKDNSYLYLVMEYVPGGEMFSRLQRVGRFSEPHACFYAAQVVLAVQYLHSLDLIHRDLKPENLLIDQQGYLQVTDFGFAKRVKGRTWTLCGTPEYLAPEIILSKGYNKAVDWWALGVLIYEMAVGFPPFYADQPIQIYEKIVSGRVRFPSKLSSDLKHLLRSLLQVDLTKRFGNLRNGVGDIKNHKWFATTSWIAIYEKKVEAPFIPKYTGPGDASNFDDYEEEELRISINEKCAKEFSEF

PDHK4 = target: T35, PDHK4 (Homo sapiens, UniProt Q16654)
T35 construct: purchased Carna Biosciences
Description: as §1

TSSK1 = target: T36, TSSK1 (Homo sapiens, UniProt Q9BXA7)
T36 construct: purchased Carna Biosciences
Description: as §1

INSR = target: T37, INSR (Homo sapiens, UniProt P06213)
T37 construct: purchased Carna Biosciences
Description: as §1

PIK3CA/PIK3R1 = target: T38, PIK3CA/PIK3R1 (Homo sapiens, UniProt P42336)
T38 construct: purchased Carna Biosciences
Description: as §1

HGK = target: T39, HGK (Homo sapiens, UniProt O95819)
T39 construct: purchased Carna Biosciences
T39 sequence (O95819 whole entry): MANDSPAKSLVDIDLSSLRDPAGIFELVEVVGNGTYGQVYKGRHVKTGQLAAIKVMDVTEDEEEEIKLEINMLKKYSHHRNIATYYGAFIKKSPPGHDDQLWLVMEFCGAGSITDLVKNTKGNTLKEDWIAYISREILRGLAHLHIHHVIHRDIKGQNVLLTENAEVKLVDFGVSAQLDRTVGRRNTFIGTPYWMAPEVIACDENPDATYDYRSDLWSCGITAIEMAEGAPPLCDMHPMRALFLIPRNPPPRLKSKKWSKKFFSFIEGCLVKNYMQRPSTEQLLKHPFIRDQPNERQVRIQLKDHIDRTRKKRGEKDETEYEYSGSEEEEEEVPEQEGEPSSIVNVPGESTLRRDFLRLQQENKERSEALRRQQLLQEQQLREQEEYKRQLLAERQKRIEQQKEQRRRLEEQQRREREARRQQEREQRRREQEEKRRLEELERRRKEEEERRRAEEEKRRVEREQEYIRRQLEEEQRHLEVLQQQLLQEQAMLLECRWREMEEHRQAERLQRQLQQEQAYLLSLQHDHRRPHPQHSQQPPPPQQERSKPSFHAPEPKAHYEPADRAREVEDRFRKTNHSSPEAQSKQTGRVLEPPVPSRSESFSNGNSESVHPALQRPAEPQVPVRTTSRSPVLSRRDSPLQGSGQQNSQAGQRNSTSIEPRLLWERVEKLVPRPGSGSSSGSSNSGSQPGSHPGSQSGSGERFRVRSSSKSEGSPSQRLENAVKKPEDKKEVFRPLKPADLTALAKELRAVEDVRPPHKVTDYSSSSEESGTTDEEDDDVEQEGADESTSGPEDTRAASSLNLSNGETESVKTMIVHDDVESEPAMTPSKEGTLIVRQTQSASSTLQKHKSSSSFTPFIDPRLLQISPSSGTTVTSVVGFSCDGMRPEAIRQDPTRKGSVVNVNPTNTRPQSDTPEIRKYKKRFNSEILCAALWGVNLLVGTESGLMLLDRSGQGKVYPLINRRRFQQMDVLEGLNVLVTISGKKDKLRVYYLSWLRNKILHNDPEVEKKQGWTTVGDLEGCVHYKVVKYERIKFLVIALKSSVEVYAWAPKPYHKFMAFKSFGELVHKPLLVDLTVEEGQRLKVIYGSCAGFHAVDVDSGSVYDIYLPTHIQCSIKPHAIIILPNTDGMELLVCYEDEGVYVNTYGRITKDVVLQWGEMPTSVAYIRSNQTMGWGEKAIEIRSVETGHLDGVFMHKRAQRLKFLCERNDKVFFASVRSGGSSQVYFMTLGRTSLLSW

KIT = target: T40, KIT (Homo sapiens, UniProt P10721)
T40 construct: purchased Carna Biosciences
Description: as §1

MST2 = target: T41, MST2 (Homo sapiens, UniProt Q13188)
T41 construct: purchased Carna Biosciences
Description: as §1

NDR2 = target: T42, NDR2 (Homo sapiens, UniProt Q9Y2H1)
T42 construct: purchased Carna Biosciences
Description: as §1

PBK = target: T43, PBK (Homo sapiens, UniProt Q96KB5)
T43 construct: purchased Carna Biosciences
T43 sequence (Q96KB5 whole entry): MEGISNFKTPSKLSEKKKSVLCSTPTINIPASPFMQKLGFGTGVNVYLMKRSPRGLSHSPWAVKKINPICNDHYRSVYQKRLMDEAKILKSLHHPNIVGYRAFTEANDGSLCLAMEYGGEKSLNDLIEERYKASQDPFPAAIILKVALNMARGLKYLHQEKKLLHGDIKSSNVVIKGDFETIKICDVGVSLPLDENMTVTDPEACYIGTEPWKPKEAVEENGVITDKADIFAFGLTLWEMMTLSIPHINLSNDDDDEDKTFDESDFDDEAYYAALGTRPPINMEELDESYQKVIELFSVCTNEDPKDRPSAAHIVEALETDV
Description: as §1

TIE2 = target: T44, TIE2 (Homo sapiens, UniProt Q02763)
T44 construct: purchased Carna Biosciences
Description: as §1

T4 sequence (P42680 whole entry): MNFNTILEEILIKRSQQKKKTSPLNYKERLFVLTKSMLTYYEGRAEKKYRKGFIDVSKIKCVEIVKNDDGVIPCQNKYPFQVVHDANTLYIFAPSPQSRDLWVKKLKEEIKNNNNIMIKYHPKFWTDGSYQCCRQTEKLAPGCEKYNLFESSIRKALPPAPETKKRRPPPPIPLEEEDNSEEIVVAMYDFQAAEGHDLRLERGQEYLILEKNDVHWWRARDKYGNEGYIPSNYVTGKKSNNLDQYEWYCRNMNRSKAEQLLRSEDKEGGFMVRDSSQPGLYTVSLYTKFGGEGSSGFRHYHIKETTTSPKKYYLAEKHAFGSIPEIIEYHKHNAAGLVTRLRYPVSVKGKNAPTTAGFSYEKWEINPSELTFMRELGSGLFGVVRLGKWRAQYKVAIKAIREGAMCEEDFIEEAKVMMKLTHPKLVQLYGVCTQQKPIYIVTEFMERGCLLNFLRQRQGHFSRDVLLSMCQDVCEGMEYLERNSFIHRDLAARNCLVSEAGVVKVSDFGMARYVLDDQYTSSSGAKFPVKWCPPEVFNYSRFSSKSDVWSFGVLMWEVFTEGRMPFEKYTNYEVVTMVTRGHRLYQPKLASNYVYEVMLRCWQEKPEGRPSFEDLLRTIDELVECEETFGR

## COc1ccc(/C=C2\SC(=S)NC2=O)cc1C#C[Si](C)(C)C [FINDY]
FGFR3
  inhibition at 10 µM: -0.5%
EPHA3
  inhibition at 10 µM: 20.8%
CaMK2β
  inhibition at 10 µM: -3.3%
TEC
  inhibition at 10 µM: 32%
PLK1
  inhibition at 10 µM: 23.7%
HIPK1
  inhibition at 10 µM: 11.8%
FES
  inhibition at 10 µM: 1.6%
AurA/TPX2
  inhibition at 10 µM: 25.1%
PIM2
  inhibition at 10 µM: 67.4%
SGK
  inhibition at 10 µM: 27.8%
PDGFRβ
  inhibition at 10 µM: 8.2%
PHKG1
  inhibition at 10 µM: 8.9%
TRKA
  inhibition at 10 µM: -0.6%
MAP2K2_Cascade
  inhibition at 10 µM: 38.8%
SLK
  inhibition at 10 µM: -35%
CaMK1α
  inhibition at 10 µM: -4.1%
CK2α2/β
  inhibition at 10 µM: 72.5%
EPHA5
  inhibition at 10 µM: 18.4%
MAPKAPK3
  inhibition at 10 µM: 29.2%
p38α
  inhibition at 10 µM: 10.6%
PKACα
  inhibition at 10 µM: 64.7%
MAP3K2_Cascade
  inhibition at 10 µM: 55.8%
IKKβ
  inhibition at 10 µM: -3.5%
MAP2K5_Cascade
  inhibition at 10 µM: -0.1%
NuaK2
  inhibition at 10 µM: -9.3%
PKCζ
  inhibition at 10 µM: -6.1%
EPHA7
  inhibition at 10 µM: 18.7%
KDR
  inhibition at 10 µM: 1.6%
MAP2K1_Cascade
  inhibition at 10 µM: 44.2%
MUSK
  inhibition at 10 µM: 4.1%
AKT1
  inhibition at 10 µM: 36.6%
CK1γ1
  inhibition at 10 µM: 19.9%
EEF2K
  inhibition at 10 µM: -3.7%
PKACγ
  inhibition at 10 µM: 17.8%
PDHK4
  inhibition at 10 µM: 14.8%
TSSK1
  inhibition at 10 µM: 3.3%
INSR
  inhibition at 10 µM: -1.3%
PIK3CA/PIK3R1
  inhibition at 10 µM: 12.8%
HGK
  inhibition at 10 µM: 13.4%
KIT
  inhibition at 10 µM: 2.9%
MST2
  inhibition at 10 µM: -5.7%
NDR2
  inhibition at 10 µM: 8.1%
PBK
  inhibition at 10 µM: 14.6%
TIE2
  inhibition at 10 µM: 55.7%
